Results reported in patent publication US20230381146A1, “SUBSTITUTED HETEROARYL COMPOUNDS AND USE THEREOF” (HELIOS HUAMING BIOPHARMA CO., LTD., priority 2020, published 2023).

Molecular target: PAD4 (Homo sapiens, UniProt Q9UM07)
Experiment: PAD4 Inhibition Assay (citrulline formation from BAEE substrate)
Assay type: biochemical
Settings: PAD4 75 nM, 60 minute preincubation at 37° C., 90 minutes
Experimental: PAD4 was diluted to 75 nM in Assay Buffer (50 mM Tris-HCl, 2 mM CaCl2), 2 mM DTT, 1 mM PMSF in H2O) and added to wells with various concentrations of compound or DMSO vehicle in Eppendorf tubes (final volume was 100 μL). Following a 60 minute preincubation at 37° C., the reaction was initiated by the addition of 10 μL substrate (22 mM BAEE in H2O) at 37° C. The reaction was stopped after 90 minutes by the addition of 25 μL HClO4 (5 M), 125 μL Reagent A (10 g/L diacetyl monoxime and 15 g/L NaCl in H2O) and 250 μL Reagent B (10 mg/mL antipyrine and 1.0 mg/mL FeCl3 diluted in detection buffer containing 25% H2SO4, 25% H3PO4 and 50% H2O) in sequence. This assay was quenched in an ice-bath for 5 minutes after boiling for 30 minutes. The citrulline formation was measured in fluorescence (κ=465 nm) on microplate reader and the IC50 was calculated by GraphPad Prism.

Chain of PAD4 (Q9UM07 whole entry): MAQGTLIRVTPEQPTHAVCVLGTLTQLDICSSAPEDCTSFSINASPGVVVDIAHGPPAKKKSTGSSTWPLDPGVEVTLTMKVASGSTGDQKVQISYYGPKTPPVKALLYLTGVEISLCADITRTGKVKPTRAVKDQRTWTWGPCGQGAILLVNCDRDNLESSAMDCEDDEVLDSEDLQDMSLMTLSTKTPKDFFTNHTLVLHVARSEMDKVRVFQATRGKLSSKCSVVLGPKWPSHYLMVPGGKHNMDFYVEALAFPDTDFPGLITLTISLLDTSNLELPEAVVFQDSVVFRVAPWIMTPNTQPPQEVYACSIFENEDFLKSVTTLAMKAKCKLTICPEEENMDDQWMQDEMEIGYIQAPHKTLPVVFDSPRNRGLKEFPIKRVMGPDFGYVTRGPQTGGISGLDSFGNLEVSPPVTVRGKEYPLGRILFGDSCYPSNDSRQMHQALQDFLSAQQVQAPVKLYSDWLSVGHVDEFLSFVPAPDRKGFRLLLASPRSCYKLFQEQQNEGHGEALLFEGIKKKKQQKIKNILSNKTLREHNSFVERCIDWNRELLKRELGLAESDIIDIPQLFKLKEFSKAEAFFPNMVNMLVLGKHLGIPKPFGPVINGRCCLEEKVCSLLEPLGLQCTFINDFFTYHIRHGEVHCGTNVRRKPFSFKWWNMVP

| Compound | IC50 |
| --- | --- |
| COc1cccc(Cl)c1C(=O)N[C@@H](CCCNC(=N)CF)c1ncc(-c2ccc(N(C)C)cc2)o1 [EX-29, (S)-2-Chloro-N-(1-(5-(4-(dimethylamino)phenyl)oxazol-2-yl)-4-(2-fluoroacetimidamido)butyl)-6-methoxybenzamide] | > 0.5 µM |
| N=C(CF)NCCC[C@H](NC(=O)c1c(Cl)cccc1Cl)c1ncc(-c2ccc(F)cc2)o1 [EX-30, (S)-2,6-Dichloro-N-(4-(2-fluoroacetimidamido)-1-(5-(4-fluorophenyl)oxazol-2-yl)butyl)benzamide] | > 0.5 µM |
| COc1cccc(Cl)c1C(=O)N[C@@H](CCCNC(=N)CF)c1ncc(-c2cccc(Cl)c2)o1 [EX-33, (S)-2-Chloro-N-(1-(5-(3-chlorophenyl)oxazol-2-yl)-4-(2-fluoroacetimidamido)butyl)-6-methoxybenzamide] | 0.2 to 0.5 µM |
| N=C(CF)NCCC[C@H](NC(=O)c1c(F)cccc1Cl)c1ncc(-c2cccc(Cl)c2)o1 [EX-35, (S)-2-Chloro-N-(1-(5-(3-chlorophenyl)oxazol-2-yl)-4-(2-fluoroacetimidamido)butyl)-6-fluorobenzamide] | 0.2 to 0.5 µM |
| COc1ccccc1C(=O)N[C@@H](CCCNC(=N)CF)c1ncc(-c2ccccc2)[nH]1 [EX-37, (S)—N-(4-(2-fluoroacetimidamido)-1-(5-phenyl-1H-imidazol-2-yl)butyl)-2-methoxybenzamide] | > 0.5 µM |
| COc1ccc(-c2ccccc2)cc1C(=O)N[C@@H](CCCNC(=N)CF)c1ncc(-c2ccccc2)o1 [EX-38, (S)—N-(4-(2-fluoroacetimidamido)-1-(5-phenyloxazol-2-yl)butyl)-4-methoxy-[1,1′-biphenyl]-3-carboxamide] | 0.2 to 0.5 µM |
| COc1cccc(OC)c1C(=O)N[C@@H](CCCNC(=N)CF)c1nnc(-c2ccc(Cl)cc2)o1 [EX-39, (S)—N-(1-(5-(4-Chlorophenyl)-1,3,4-oxadiazol-2-yl)-4-(2-fluoroacetimidamido)butyl)-2,6-dimethoxybenzamide] | > 0.5 µM |
| COc1cccc(OC)c1C(=O)N[C@@H](CCCNC(=N)CF)c1nc(-c2ccc(Cl)cc2)no1 [EX-40] | > 0.5 µM |
| COc1cccc(Cl)c1C(=O)N[C@@H](CCCNC(=N)CF)c1ncc(-c2cccc(NC(=O)CCCNC(=O)CCCC[C@@H]3SC[C@@H]4NC(=O)N[C@@H]43)c2)o1 [EX-41, 2-Chloro-N—((S)-4-(2-fluoroacetimidamido)-1-(5-(3-(4-(5-((3aS,4S,6aR)-2-oxohexahydro-1H-thieno[3,4-d]imidazol-4-yl)pentanamido)butanamido)phenyl)oxazol-2-yl)butyl)-6-methoxybenzamide] | 0.2 to 0.5 µM |
| COc1ccc(OCCCNC(=O)CCCC(=O)NCCCOCCOCCOCCCNC(=O)CCCC[C@@H]2SC[C@@H]3NC(=O)N[C@@H]32)cc1C(=O)N[C@@H](CCCNC(=N)CF)c1ncc(-c2cccc(Cl)c2)o1 [EX-42, N^1-(3-(3-(((S)-1-(5-(3-Chlorophenyl)oxazol-2-yl)-4-(2-fluoroacetimidamido)butyl)carbamoyl)-4-methoxyphenoxy)propyl)-N^5-(15-oxo-19-((3aS,4S,6aR)-2-oxohexahydro-1H-thieno[3,4-d]imidazol-4-yl)-4,7,10-trioxa-14-azanonadecyl)glutaramide] | > 0.5 µM |

Further lines, results first:

| IC50 | Compound |
| --- | --- |
| 0.2 to 0.5 µM | COc1cccc(Cl)c1C(=O)N[C@@H](CCCNC(=N)CF)c1ncc(-c2cccc(C)c2)o1 [EX-28, (S)-2-Chloro-N-(4-(2-fluoroacetimidamido)-1-(5-(m-tolyl)oxazol-2-yl)butyl)-6-methoxybenzamide] |
| 0.2 to 0.5 µM | COc1cccc(F)c1C(=O)N[C@@H](CCCNC(=N)CF)c1ncc(-c2cccc(C)c2)o1 [EX-31, (S)-2-Fluoro-N-(4-(2-fluoroacetimidamido)-1-(5-(m-tolyl)oxazol-2-yl)butyl)-6-methoxybenzamide] |
| 0.2 to 0.5 µM | Cc1cccc(-c2cnc([C@H](CCCNC(=N)CF)NC(=O)c3c(F)cccc3F)o2)c1 [EX-32, (S)-2,6-Difluoro-N-(4-(2-fluoroacetimidamido)-1-(5-(m-tolyl)oxazol-2-yl)butyl)benzamide] |
| < 0.2 µM | COc1cc2ccccc2cc1C(=O)N[C@@H](CCCNC(=N)CF)c1ncc(-c2ccccc2)o1 [EX-36, (S)—N-(4-(2-fluoroacetimidamido)-1-(5-phenyloxazol-2-yl)butyl)-3-methoxy-2-naphthamide] |
